Measured values as given in patent US5466671A, “Apidaecin-type peptide antibiotics with improved activities and/or different antibacterial spectrum” (priority 1994, dated 1995).
≈ marks a conversion by molar mass, not a printed value. Residues, ends and D or L forms follow the SMILES beside them.

Legend:
Yersinia enterocolitica = assay: Inhibition zone assay (agar plate); format: cell-based; details: 3 mm wells
Neisseria gonorrhoeae = format: cell-based; details: cecropin P1, 5 nanomoles/well
Y. enterocolitica = assay: Minimal inhibitory concentration (liquid culture); details: inoculum 5000 CFU/ml; a-b = highest concentration with growth - lowest without growth
[1] = test system: Acinetobacter calcoaceticus; assay: Inhibition zone assay (agar plate); format: cell-based; details: agar plate, 3 mm wells
Escherichia coli (K514) = format: cell-based; details: agar plate, cecropin P1 5 nanomoles/well (column head: 500p), 3 mm wells
[2] = test system: Bacteriodes melaninogenicus; format: cell-based; details: cecropin P1, 5 nanomoles/well
Salmonella typhimurium = assay: Inhibition zone assay (agar plate); format: cell-based; details: agar plate, 3 mm wells
A. calcoaceticus = assay: Minimal inhibitory concentration (liquid culture); details: inoculum 16 × 10^6 CFU/ml; a-b = highest concentration with growth - lowest without growth
Klebsiella pneumoniae = assay: Inhibition zone assay (agar plate); format: cell-based; details: agar plate, 3 mm wells
S. typhimurium = assay: Minimal inhibitory concentration (liquid culture); details: inoculum 8 × 10^6 CFU/ml; a-b = highest concentration with growth - lowest without growth
E. coli 11775 [3] = assay: Minimal inhibitory concentration (liquid culture); details: a-b = highest concentration with growth - lowest without growth
Rhizobium meliloti = assay: Inhibition zone assay (agar plate); format: cell-based; details: 3 mm wells
Campylobacter jejuni = assay: Inhibition zone assay (agar plate); format: cell-based; details: cecropin P1 5 nanomoles/well (column head: 500p), 3 mm wells
N. meningiditis = format: cell-based; details: cecropin P1, 5 nanomoles/well
Haemophilus influenzae = assay: Inhibition zone assay (agar plate); format: cell-based; details: 3 mm wells
[4] = test system: Agrobacterium tumefaciens; assay: Inhibition zone assay (agar plate); format: cell-based; details: agar plate, 3 mm wells
Shigella dysenteriae = format: cell-based; details: agar plate, cecropin P1 5 nanomoles/well (column head: 500p), 3 mm wells
Salmonella typhi = format: cell-based; details: agar plate, cecropin P1 5 nanomoles/well (column head: 500p), 3 mm wells
M. morganii = assay: Minimal inhibitory concentration (liquid culture); details: inoculum 400 CFU/ml; a-b = highest concentration with growth - lowest without growth
Proteus mirabilis = format: cell-based; details: cecropin P1, 5 nanomoles/well
Legionella pneumophila = format: cell-based
[5] = test system: E. coli strain 11775Apid^R; details: 11775Apid^R vs ATCC 11775; cited from earlier work
[6] = test system: bacterial strains used in this study; assay: Minimal inhibitory concentration, inoculum effect; format: cell-based; details: any of the bacterial strains used
E. coli 23802 = assay: Minimal inhibitory concentration (liquid culture); details: inoculum 5000 CFU/ml; a-b = highest concentration with growth - lowest without growth
Haemophilus ducreyi = format: cell-based; details: cecropin P1, 5 nanomoles/well
Gardnerella vaginalis = format: cell-based; details: cecropin P1, 5 nanomoles/well
E. coli 25922 = assay: Minimal inhibitory concentration (liquid culture); details: inoculum 1100 CFU/ml; a-b = highest concentration with growth - lowest without growth
E. coli Apid^R [7] = assay: Minimal inhibitory concentration (liquid culture); format: cell-based; details: a-b = highest concentration with growth - lowest without growth
Source text: For details see `Experimental Procedures`.

Xanthomonas maltophilia = format: cell-based; details: cecropin P1, 5 nanomoles/well
Helicobacter pylori = format: cell-based; details: cecropin P1, 5 nanomoles/well
Enterobacter cloacae = assay: Inhibition zone assay (agar plate); format: cell-based; details: agar plate, 3 mm wells
E. coli 11775 [8] = details: against 10^7 cells/ml, parental strain ATCC 11775; cited from earlier work
Pseudomonas syringae = assay: Inhibition zone assay (agar plate); format: cell-based; details: agar plate, 50 nanomoles/well, 3 mm wells
Erwinia amylovora = assay: Inhibition zone assay (agar plate); format: cell-based; details: agar plate, 50 nanomoles/well, 3 mm wells
E. coli Apid^R [9] = details: cited from earlier work
Morganella morganii = assay: Inhibition zone assay (agar plate); format: cell-based; details: 50 nanomoles/well, 3 mm wells
[10] = test system: Escherichia coli (ATCC11775); assay: Inhibition zone assay (agar plate); format: cell-based; details: agar plate, 50 nanomoles/well, 3 mm wells
[11] = cecropin P1 5 nanomoles/well (column head: 500p)

CC[C@H](C)[C@H](NC(=O)CNC(=O)[C@H](CCC(=O)O)NC(=O)[C@H](CO)NC(=O)[C@@H](NC(=O)[C@H](CCCNC(=N)N)NC(=O)[C@H](CCCCN)NC(=O)[C@H](CCCCN)NC(=O)[C@H](C)NC(=O)[C@H](CO)NC(=O)[C@H](CC(N)=O)NC(=O)[C@H](CCC(=O)O)NC(=O)[C@H](CC(C)C)NC(=O)[C@H](CCCCN)NC(=O)[C@H](CCCCN)NC(=O)[C@H](C)NC(=O)[C@@H](NC(=O)[C@H](CCCCN)NC(=O)[C@H](CO)NC(=O)[C@H](CC(C)C)NC(=O)[C@H](Cc1c[nH]c2ccccc12)NC(=O)[C@@H](N)CO)[C@@H](C)O)[C@@H](C)CC)C(=O)N[C@@H](C)C(=O)N[C@H](C(=O)N[C@@H](C)C(=O)N[C@H](C(=O)N[C@@H](CCC(N)=O)C(=O)NCC(=O)NCC(=O)N1CCC[C@H]1C(=O)N[C@@H](CCCNC(=N)N)C(=O)O)[C@@H](C)CC)[C@@H](C)CC [CP-1, cecropin P1, reference compound] (H-SWLSKTAKKLENSAKKRISEGIAIAIQGGPR-OH)
inhibition zone diameter (number of plus signs) (Yersinia enterocolitica; [11]): +++++ ((+++++) 20 or more min) | measurable activity on agar plate (Neisseria gonorrhoeae): not | minimal inhibitory concentration (MIC) (Y. enterocolitica): 0.2 to 1 µg/mL | inhibition zone diameter (number of plus signs) [1, 11]: ++ ((++) 7-9 mm) | inhibition zone diameter (number of plus signs) (Escherichia coli (K514)): + ((+) 5-6 mm) | measurable activity on agar plate [2]: measurable activity | inhibition zone diameter (number of plus signs) (Salmonella typhimurium; [11]): ++ ((++) 7-9 mm) | minimal inhibitory concentration (MIC) (A. calcoaceticus): 2 to 10 µg/mL | inhibition zone diameter (number of plus signs) (Klebsiella pneumoniae; [11]): + ((+) 5-6 mm) | minimal inhibitory concentration (MIC) (S. typhimurium): 1 to 2 µg/mL | minimal inhibitory concentration (MIC) (E. coli 11775 [3]; inoculum 16 × 10^6 CFU/ml): 0.2 to 1 µg/mL | minimal inhibitory concentration (MIC) (E. coli 11775 [3]; inoculum 1200 CFU/ml): 0.2 to 1 µg/mL | inhibition zone diameter (number of plus signs) (Rhizobium meliloti; [11]): + ((+) 5-6 mm) | inhibition zone diameter (number of plus signs) (Campylobacter jejuni): +++ ((+++) 10-14 mm) | measurable activity on agar plate (N. meningiditis): not | inhibition zone diameter (number of plus signs) (Haemophilus influenzae; [11]): ++++ ((++++) 15-19 mm) | inhibition zone diameter (number of plus signs) [4, 11]: ++++ ((++++) 15-19 mm) | inhibition zone diameter (number of plus signs) (Shigella dysenteriae): ++++ ((++++) 15-19 mm) | inhibition zone diameter (number of plus signs) (Salmonella typhi): +++++ ((+++++) 20 or more min) | minimal inhibitory concentration (MIC) (M. morganii): 0.2 to 1 µg/mL | measurable activity on agar plate (Proteus mirabilis): not | inhibition zone diameter (number of plus signs) (Legionella pneumophila): +++++ (key: (+) 5-6 mm; (++) 7-9 mm; (+++) 10-14 mm; (++++) 15-19 mm; (+++++) 20 or more min; (-) denotes that no inhibition was observed) | susceptibility of mutant compared to parental strain [5]: equally susceptible | inoculum effect [6]: No inoculum effect | minimal inhibitory concentration (MIC) (E. coli 23802): 0.2 to 1 µg/mL | measurable activity on agar plate (Haemophilus ducreyi): measurable activity | measurable activity on agar plate (Gardnerella vaginalis): not | minimal inhibitory concentration (MIC) (E. coli 25922): 0.2 to 1 µg/mL | minimal inhibitory concentration (MIC) (E. coli Apid^R [7]; inoculum 12 × 10^6 CFU/ml): 0.2 to 1 µg/mL | minimal inhibitory concentration (MIC) (E. coli Apid^R [7]; inoculum 1000 CFU/ml): 0.2 to 1 µg/mL | measurable activity on agar plate (Xanthomonas maltophilia): measurable activity | measurable activity on agar plate (Helicobacter pylori): not | inhibition zone diameter (number of plus signs) (Enterobacter cloacae; [11]): ++++ ((++++) 15-19 mm)

CC[C@H](C)[C@H](NC(=O)[C@H](Cc1ccc(O)cc1)NC(=O)[C@@H](NC(=O)[C@@H]1CCCN1C(=O)[C@H](CCCNC(=N)N)NC(=O)[C@H](CC(N)=O)NC(=O)[C@H](CC(N)=O)NC(=O)CN)C(C)C)C(=O)N1CCC[C@H]1C(=O)N[C@@H](CCC(N)=O)C(=O)N1CCC[C@H]1C(=O)N[C@@H](CCCNC(=N)N)C(=O)N1CCC[C@H]1C(=O)N1CCC[C@H]1C(=O)N[C@@H](Cc1c[nH]cn1)C(=O)N1CCC[C@H]1C(=O)N[C@@H](CCCNC(=N)N)C(=O)N[C@@H](CC(C)C)C(=O)O [Hb Ib, reference compound] (H-GNNRPVYIPQPRPPHPRL-OH)
inhibition zone diameter (number of plus signs) (Yersinia enterocolitica; 50 nanomoles/well): +++ ((+++) 10-14 mm) | minimal inhibitory concentration (MIC) (Y. enterocolitica): 1 to 5 µg/mL | inhibition zone diameter (number of plus signs) ([1]; 50 nanomoles/well): + ((+) 5-6 mm) | inhibition zone diameter (number of plus signs) (Salmonella typhimurium; 50 nanomoles/well): +++ ((+++) 10-14 mm) | minimal inhibitory concentration (MIC) (A. calcoaceticus): 10 to 20 µg/mL | MIC value (E. coli 11775 [8]): 0.1 µg/mL (≈ 0.0474 µM) | inhibition zone diameter (number of plus signs) (Klebsiella pneumoniae; 50 nanomoles/well): +++ ((+++) 10-14 mm) | minimal inhibitory concentration (MIC) (S. typhimurium): 1 to 5 µg/mL | minimal inhibitory concentration (MIC) (E. coli 11775 [3]; inoculum 16 × 10^6 CFU/ml): 1 to 5 µg/mL | minimal inhibitory concentration (MIC) (E. coli 11775 [3]; inoculum 1200 CFU/ml): < 0.05 µg/mL | inhibition zone diameter (number of plus signs) (Pseudomonas syringae): ++++ ((++++) 15-19 mm) | inhibition zone diameter (number of plus signs) (Rhizobium meliloti; 50 nanomoles/well): +++++ ((+++++) 20 or more min) | inhibition zone diameter (number of plus signs) (Erwinia amylovora): ++++ ((++++) 15-19 mm) | resistance of mutant relative to parental strain (higher apidaecin concentrations) (E. coli Apid^R [9]; 11775Apid^R vs ATCC 11775): approximately 500 fold | MIC value (E. coli Apid^R [9]; against 10^7 cells/ml, mutant strain 11775Apid^R): 50 µg/mL (≈ 23.7 µM) | inhibition zone diameter (number of plus signs) (Haemophilus influenzae; 50 nanomoles/well): +++ ((+++) 10-14 mm) | inhibition zone diameter (number of plus signs) ([4]; 50 nanomoles/well): +++++ ((+++++) 20 or more min) | minimal inhibitory concentration (MIC) (M. morganii): 1 to 5 µg/mL | inhibition zone diameter (number of plus signs) (Morganella morganii): + ((+) 5-6 mm) | minimal inhibitory concentration (MIC) (E. coli 23802): 10 to 20 µg/mL | inhibition zone diameter (number of plus signs) [10]: ++++ ((++++) 15-19 mm) | minimal inhibitory concentration (MIC) (E. coli 25922): 0.5 to 1 µg/mL | minimal inhibitory concentration (MIC) (E. coli Apid^R [7]; inoculum 12 × 10^6 CFU/ml): > 40 µg/mL | minimal inhibitory concentration (MIC) (E. coli Apid^R [7]; inoculum 1000 CFU/ml): 20 to 40 µg/mL | inhibition zone diameter (number of plus signs) (Enterobacter cloacae; 50 nanomoles/well): +++ ((+++) 10-14 mm)
